“Also recorded” adds a separate entry of the source.
Experiments:
[1] = tested on: human ALS stem cell-derived motor neurons; assay: Rescue of CPA toxicity, 6-point dose-response assay (FIG. 2B); format: cell-based
[2] = tested on: mouse ES-derived motor neurons; assay: Western blot of JNK pathway activation in CPA-treated motor neurons; format: cell-based; conditions: 4 h
Experimental: Mouse ES-derived motor neurons were treated with CPA, CPA+ compound 1, or vehicle control (DMSO) for four hours. Cells were then lysed to extract proteins.
Samples were harvested after 4 h of treatment. N=samples from 3 separate motor neuron differentiations treated and lysed separately. Cells from each differentiation were split into three samples, one for each treatment condition. All samples were run concurrently on the same blot. All band intensities were normalized to GAPDH to control for loading, then DMSO and CPA+Compound 1 values were normalized to CPA values for each n. One-way ANOVAs were used to evaluate the overall effects of treatment on JNK phosphorylation (P=0.0009; F=28.33; R2=0.9042) and c-Jun phosphorylation (P<0.0001; F=101.9; R2=0.9714).
Whole mouse embryoid bodies at day 6 of differentiation were treated with CPA (10 μM) and test compounds for 4 h, then lysed and sonicated in ice-cold buffer containing HEPES (50 mM), NaCl (100 mM), Triton-X (1%), SDS (0.1%), DTT (1 mM), EDTA (1 mM), plus protease and phosphatase inhibitor cocktail tablets (Roche). Total protein content was analyzed using a BCA kit according to the manufacturer's instructions (Pierce). […] Samples were run for 4 h at 100V at 4°, then transferred to nitrocellulose membranes using an iBlot dry transfer system (Thermo Fisher). Membranes were blocked with tris-buffered saline (TBS) containing 5% BSA (Cell Signaling Technologies), then incubated with primary antibodies in a buffer containing 5% BSA and 0.1% Tween in TBS overnight at 4°. Primary antibodies against phospho-c-Jun (serine 63; Cell Signaling Technologies #9261) were added at 1:500; primary antibodies against phospho-JNK (thr183/tyr185; Cell Signaling Technologies #4688) were added at 1:1000; primary antibodies against GAPDH (Santa Cruz Biotechnologies) were added at 1:1000 as a loading control. Following washes in TBS containing 0.1% Tween, membranes were incubated in goat anti-rabbit HRP-conjugated secondary antibody solutions (1:10,000; Santa Cruz Biotechnologies) for 1 hr. Membranes were then washed again in TBS containing 0.1% Tween, then incubated in Femto ECL (Pierce) for 5 min. Chemiluminescence was visualized using a LiCor Odyssey. Phospho-c-Jun and phopsho-JNK band intensities were normalized to GAPDH.

[3] = Spectrophotometric solubility assay of vehicle formulations (540 nM); format: physicochemical
Experimental: These mixtures were then read on a spectrophotometer at […] to assess optical density, a measure of the transparency of the mixture and an indicator of the formation of precipitates. […] At higher concentrations, these precipitates were visible by eye.
Compounds diluted in different vehicle formulations were added to clear cell culture media at ratios consistent with our in vivo dosing scheme.

[4] = Pharmacokinetics of compound 1 in mice (background); conditions: mouse, in vivo
HGK/MAP4K4 = HGK/MAP4K4 (Homo sapiens, UniProt O95819); conditions: cited from earlier work
HGK/MAP4K4, sequence (O95819 whole entry, species assumed): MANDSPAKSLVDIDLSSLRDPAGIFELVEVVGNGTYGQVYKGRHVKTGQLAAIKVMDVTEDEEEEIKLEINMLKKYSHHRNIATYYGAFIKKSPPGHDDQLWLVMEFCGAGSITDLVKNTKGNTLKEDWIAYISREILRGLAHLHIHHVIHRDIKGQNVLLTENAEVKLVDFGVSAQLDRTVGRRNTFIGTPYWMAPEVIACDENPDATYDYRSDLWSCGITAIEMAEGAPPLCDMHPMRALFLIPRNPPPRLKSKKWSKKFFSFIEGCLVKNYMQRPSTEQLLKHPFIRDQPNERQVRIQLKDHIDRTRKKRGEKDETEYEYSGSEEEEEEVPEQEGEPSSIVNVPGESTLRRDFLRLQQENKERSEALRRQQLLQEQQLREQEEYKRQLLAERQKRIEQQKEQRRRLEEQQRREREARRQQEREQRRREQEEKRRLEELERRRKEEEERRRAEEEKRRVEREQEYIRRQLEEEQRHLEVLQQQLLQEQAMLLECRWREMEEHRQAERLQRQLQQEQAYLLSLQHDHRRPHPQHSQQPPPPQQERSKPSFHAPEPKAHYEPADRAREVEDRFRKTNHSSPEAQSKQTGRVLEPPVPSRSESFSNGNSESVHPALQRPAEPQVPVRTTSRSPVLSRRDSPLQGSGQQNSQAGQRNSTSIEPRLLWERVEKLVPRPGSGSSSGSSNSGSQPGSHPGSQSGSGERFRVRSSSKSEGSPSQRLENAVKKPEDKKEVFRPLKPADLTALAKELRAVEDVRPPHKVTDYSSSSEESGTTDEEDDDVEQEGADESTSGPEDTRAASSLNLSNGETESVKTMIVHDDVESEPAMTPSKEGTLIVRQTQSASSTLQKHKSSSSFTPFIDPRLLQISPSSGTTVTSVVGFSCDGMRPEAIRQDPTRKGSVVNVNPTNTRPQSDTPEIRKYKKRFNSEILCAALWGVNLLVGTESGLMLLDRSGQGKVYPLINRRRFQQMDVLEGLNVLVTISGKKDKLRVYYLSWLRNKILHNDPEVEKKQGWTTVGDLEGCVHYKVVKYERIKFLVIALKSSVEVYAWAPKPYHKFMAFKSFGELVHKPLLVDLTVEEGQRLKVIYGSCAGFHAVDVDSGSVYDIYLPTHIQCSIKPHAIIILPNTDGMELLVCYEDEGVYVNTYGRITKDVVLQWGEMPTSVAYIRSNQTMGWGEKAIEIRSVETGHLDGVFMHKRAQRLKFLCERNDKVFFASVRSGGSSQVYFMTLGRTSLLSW

[5] = tested on: human stem cell-derived motor neurons derived from a healthy patient; assay: CPA survival assay, wild-type human stem cell-derived motor neurons; conditions: CPA 33 μM; at 1.2 μM (PF-6260933), 2.4 μM (GNE-495), 0.6 μM (URMC-099)
[6] = tested on: panel of 371 human kinases; assay: Radiolabeled ATP kinase assay, panel of 371 kinases (Table S6); format: biochemical; conditions: 0.1 μM, 10 μM ATP
Description: ; FIG. 38C). […]. Further targeted analyses, such as genetic knock-down or knock-out, may be warranted to parse the role of these additional kinases in our model of neurodegeneration.

phospho-cjun = assay: Phospho-cjun in olfactory bulbs after treatment in vivo (western blot); parameters: species or system mouse; conditions: 10 mg/kg oral gavage
Experimental: Compounds at 10 mg/kg were delivered intraperitoneally (IP), orally, or sub-cutaneously (SC). Animals were sacrificed 1 h after treatment. Their olfactory bulbs were dissected and lysed for western blot analysis. Phospho-cjun expression was normalized to the housekeeping protein GAPDH.
We therefore selected phospho-cjun as a marker of target engagement for further in vivo studies. C-jun is highly expressed throughout the murine central nervous system, especially in the olfactory bulbs. […] Animals were then sacrificed after 1 h, and their olfactory bulbs were sub-dissected and lysed for further western blot analysis. Samples were probed with an antibody specific to phosphorylated c-jun (at serine 63; cell signaling) and normalized to the housekeeping gene GAPDH.

[7] = tested on: targets of cyclin-dependent kinases and mitogen activated kinases; assay: Target engagement in CNS, per os 7 days (phosphoprotein blot of brain); format: in vivo, mouse; conditions: 5 or 10 mg/kg
Experimental: To explore the target engagement in CNS for compound 12k, compounds 1 and 12k were administered continuously per os to wild-type mice (n=3 per treatment). […] Fresh brain samples were harvested after 7 days of treatment. Reduced brain samples were separated by SDS-PAGE and probed with an antibody that recognizes phosphoproteins that have been phosphorylated at motifs corresponding to the targets of cyclin-dependent kinases and mitogen activated kinases.

[8] = Safety of long-term administration in drinking water; format: in vivo; conditions: 10 mg/kg, 60 days from P30
Description: […]. Treatment began at P30 and continued for 60 days.

Row | Structure (SMILES) | cellular potency [1] [nM] | concentrations showing protective effects ([1]; 33 μM CPA) [nM] | concentration that completely reversed CPA-induced neurodegeneration ([1]; 33 μM CPA, 0.01 μM-3 μM) [µM] | JNK phosphorylation in CPA-treated motor neurons [2] | MKK4 phosphorylation in CPA-treated MNs [2] | c-Jun phosphorylation in CPA-treated motor neurons [2] | caspase 3 cleavage in CPA-treated MNs [2] | solubility after adding 2-hydroxypropyl-β-cyclodextrin to the vehicle ([3]; 11% 2-hydroxypropyl-β-cyclodextrin) | solubility in cell culture media ([3]; formulation 55% saline, 40% PEG-400, 5% DMSO) | half-life [4] [h] | HGK enzyme activity remaining (HGK/MAP4K4; 1 μM treatment) [%] | inhibition of HGK activity in a cell-free assay (HGK/MAP4K4; 1 μM, Goodfellow et al. 2013) [%] | motor neuron survival restored, % of vehicle controls (maximum) [5] [%] | % Enzyme Activity (relative to DMSO controls) ([6]; LYN B) [%] | % Enzyme Activity (relative to DMSO controls) ([6]; PKCb2) [%] | % Enzyme Activity (relative to DMSO controls) ([6]; PKG1b) [%] | oral bioavailability (from reduction of cjun phosphorylation after oral gavage) (phospho-cjun) | intensity of a high molecular weight phosphoprotein band in brain vs vehicle or compound 1 [7] | body mass vs vehicle-treated controls [8] | survival, hindlimb strength, gross pathology [8]
1 | CN1CCN(Cc2ccc(-c3cnc4[nH]cc(-c5ccc6[nH]ccc6c5)c4c3)cc2)CC1 [Compound 1, 3-(1H-Indol-5-yl)-5-(4-((4-methylpiperazin-1-yl)methyl)phenyl)-1H-pyrrolo[2,3-b]pyridine, reference compound] | > 100 | ≥ 100 | 1 | strongly attenuated; also recorded: significantly decreased JNK phosphorylation | strongly attenuated | strongly suppressed; also recorded: below the threshold of detection | strongly suppressed | fully solubilize | highly insoluble | 2 to 3 | 0.54 | > 99 | 90 |  |  |  |  |  |  | 
2 | OCCN1CCN(Cc2ccc(-c3cnc4[nH]cc(-c5cccc(Cl)c5)c4c3)cc2)CC1 [Compound 12k, 2-(4-(4-(3-(3-Chlorophenyl)-1H-pyrrolo[2,3-b]pyridin-5-yl)benzyl)piperazin-1-yl)ethan-1-ol] |  |  |  |  |  |  |  |  |  |  |  |  |  | 89.48 | 89.45 | 101.46 | orally bioavailable | consistently decreased the intensity of a high molecular weight band | mild increase in body mass | No differences in survival, hindlimb strength, or gross pathology

From US12227500B2, “Substituted pyrrolo[2,3-b]pyridines for suppressing toxic endoplasmic reticulum stress” (THE TRUSTEES OF COLUMBIA UNIVERSITY IN THE CITY OF NEW YORK, priority 2018, dated 2025)
